What was measured:
[1] = molecular target: DGKα (Homo sapiens (Human), UniProt P23743); assay: In vitro DGKα inhibition assay (ADP-Glo); assay type: biochemical; settings: His-tagged human recombinant enzyme, 0.1 nM DGKα, 50 μM ATP, 20 μM DLG, 90 minute incubation
Outline: (§1)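 His-tagged human DGKα (0.1 nM, 50 μM ATP) or DGKζ (0.4 nM, 30 μM ATP), each with 20 μM DLG, in Tris pH 7.5 buffer with CHAPS, Mg2+, Ca2+.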

[2] = molecular target: DGKζ (Homo sapiens (Human), UniProt Q13574); assay: In vitro DGKζ inhibition assay (ADP-Glo); assay type: biochemical; settings: His-tagged human recombinant enzyme, 0.4 nM DGK, 30 μM ATP, 20 μM DLG, 90 minute incubation
DGKζ, sequence (Q13574 whole entry): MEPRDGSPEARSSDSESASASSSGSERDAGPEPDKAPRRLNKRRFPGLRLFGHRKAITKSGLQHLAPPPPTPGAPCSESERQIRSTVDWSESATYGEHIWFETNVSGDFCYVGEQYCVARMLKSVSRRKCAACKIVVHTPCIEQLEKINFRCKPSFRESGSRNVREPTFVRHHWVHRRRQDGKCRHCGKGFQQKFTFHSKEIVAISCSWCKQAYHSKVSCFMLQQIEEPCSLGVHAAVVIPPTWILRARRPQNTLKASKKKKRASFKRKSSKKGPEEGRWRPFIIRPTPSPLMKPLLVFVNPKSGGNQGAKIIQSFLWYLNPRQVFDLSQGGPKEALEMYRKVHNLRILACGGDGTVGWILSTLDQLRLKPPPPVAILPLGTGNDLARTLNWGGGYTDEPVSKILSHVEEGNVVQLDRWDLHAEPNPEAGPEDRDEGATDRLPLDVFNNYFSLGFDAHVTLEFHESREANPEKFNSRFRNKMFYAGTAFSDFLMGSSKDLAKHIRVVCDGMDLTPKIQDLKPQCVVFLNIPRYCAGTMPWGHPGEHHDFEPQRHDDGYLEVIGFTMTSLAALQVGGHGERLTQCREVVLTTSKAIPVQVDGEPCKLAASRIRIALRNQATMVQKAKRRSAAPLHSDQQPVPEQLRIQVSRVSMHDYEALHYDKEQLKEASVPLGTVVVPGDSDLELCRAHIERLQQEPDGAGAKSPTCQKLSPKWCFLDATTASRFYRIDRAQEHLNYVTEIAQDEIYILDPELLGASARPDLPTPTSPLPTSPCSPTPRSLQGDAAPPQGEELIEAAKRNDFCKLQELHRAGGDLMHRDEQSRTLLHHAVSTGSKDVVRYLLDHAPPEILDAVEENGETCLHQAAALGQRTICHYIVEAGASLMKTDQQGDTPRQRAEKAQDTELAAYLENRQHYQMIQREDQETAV
Outline: as §1

DGKα, sequence (P23743 whole entry): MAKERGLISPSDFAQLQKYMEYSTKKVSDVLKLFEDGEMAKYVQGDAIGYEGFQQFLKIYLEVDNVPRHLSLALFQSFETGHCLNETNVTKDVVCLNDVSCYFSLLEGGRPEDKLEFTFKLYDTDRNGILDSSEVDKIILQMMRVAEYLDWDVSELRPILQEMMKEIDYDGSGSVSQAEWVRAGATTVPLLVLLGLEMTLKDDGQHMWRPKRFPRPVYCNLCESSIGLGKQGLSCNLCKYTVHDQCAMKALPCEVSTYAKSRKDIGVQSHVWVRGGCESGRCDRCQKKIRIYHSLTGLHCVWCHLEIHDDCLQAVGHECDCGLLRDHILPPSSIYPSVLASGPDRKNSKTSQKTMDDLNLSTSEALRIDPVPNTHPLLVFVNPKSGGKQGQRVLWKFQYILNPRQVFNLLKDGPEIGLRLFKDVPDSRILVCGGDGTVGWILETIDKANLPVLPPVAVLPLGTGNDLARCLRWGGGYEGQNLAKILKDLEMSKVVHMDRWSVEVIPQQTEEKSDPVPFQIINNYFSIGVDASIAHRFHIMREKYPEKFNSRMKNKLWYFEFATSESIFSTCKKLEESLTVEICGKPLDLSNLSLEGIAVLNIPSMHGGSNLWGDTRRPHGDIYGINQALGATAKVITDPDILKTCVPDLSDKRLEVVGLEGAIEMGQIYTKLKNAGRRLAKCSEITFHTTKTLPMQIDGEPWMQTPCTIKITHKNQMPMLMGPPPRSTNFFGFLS

Structure (SMILES)	IC50 [1]	IC50 [2]
Cc1nc2c(N3C[C@@H](C)N(C(c4ccc(Br)cc4)c4ccc(Br)cc4)C[C@@H]3C)nc3nncn3c2n1C[C@@H]1CCCO1 [Example 108, 4-((2S,5R)-4-(Bis(4-bromophenyl)methyl)-2,5-dimethylpiperazin-1-yl)-2-methyl-1-(((S)-tetrahydrofuran-2-yl)methyl)-1H-[1,2,4]triazolo[3,4-b]purine]	≤ 20 nM	≤ 20 nM
Cc1nc2c(N3C[C@@H](C)N([C@H](c4ccc(C(F)(F)F)cc4F)C(C)C)C[C@@H]3C)nc3nncn3c2n1C[C@@H]1CCCO1 [Example 71, 4-((2S,5R)-4-((S)-1-(2-Fluoro-4-(trifluoromethyl)phenyl)-2-methylpropyl)-2,5-dimethylpiperazin-1-yl)-2-methyl-1-(((S)-tetrahydrofuran-2-yl)methyl)-1H-[1,2,4]triazolo[3,4-b]purine]	≤ 20 nM	≤ 20 nM
Cc1nc2c(N3C[C@@H](C)N(C(c4ccc(C(F)(F)F)c(Cl)c4)C4CC(F)(F)C4)C[C@@H]3C)nc3nncn3c2n1C[C@@H]1CCCO1 (stereo partly drawn) [Example 58, 4-((2S,5R)-4-((3-Chloro-4-(trifluoromethyl)phenyl)(3,3-difluorocyclobutyl)methyl)-2,5-dimethylpiperazin-1-yl)-2-methyl-1-(((S)-tetrahydrofuran-2-yl)methyl)-1H-[1,2,4]triazolo[3,4-b]purine]	≤ 20 nM	≤ 20 nM
C[C@@H]1CN(c2nc3nncn3c3c2ncn3CCN(C)C)[C@@H](C)CN1C(c1ccc(Cl)cc1)c1ccc(Cl)cc1 [Example 107, 2-(4-((2S,5R)-4-(Bis(4-chlorophenyl)methyl)-2,5-dimethylpiperazin-1-yl)-1H-[1,2,4]triazolo[3,4-b]purin-1-yl)-N,N-dimethylethan-1-amine]	≤ 20 nM	≤ 20 nM
Cc1nn(C)c2c1c(N1C[C@@H](C)N(C(c3ccc(F)cc3)c3ccc(F)cc3)C[C@@H]1C)cc1nncn12 [Example 12, 4-((2S,5R)-4-(Bis(4-fluorophenyl)methyl)-2,5-dimethylpiperazin-1-yl)-1,3-dimethyl-1H-pyrazolo[4,3-e][1,2,4]triazolo[4,3-a]pyridine]	≤ 20 nM	> 2000 nM
Cc1nc2c(N3C[C@@H](C)N([C@@H](c4ccc(C(F)F)cc4)C(C)C)C[C@@H]3C)nc3nncn3c2n1C[C@@H]1CCCO1 [Example 74, 4-((2S,5R)-4-((R)-1-(4-(difluoromethyl)phenyl)-2-methylpropyl)-2,5-dimethylpiperazin-1-yl)-2-methyl-1-(((S)-tetrahydrofuran-2-yl)methyl)-1H-[1,2,4]triazolo[3,4-b]purine]	≤ 20 nM	≤ 20 nM
CC[C@@H]1CN(c2nc3nncn3c3c2nc(C)n3C[C@@H]2CCCO2)[C@@H](C)CN1[C@H](c1ccc(C(F)(F)F)cc1)C(C)C [Example 128, 4-((2S,5R)-5-Ethyl-2-methyl-4-((S)-2-methyl-1-(4-(trifluoromethyl)phenyl)propyl)piperazin-1-yl)-2-methyl-1-(((S)-tetrahydrofuran-2-yl)methyl)-1H-[1,2,4]triazolo[3,4-b]purine]	≤ 20 nM	≤ 20 nM
C[C@@H]1CN(c2nc3nncn3c3ccoc23)[C@@H](C)CN1C(c1ccc(F)cc1)c1ccc(F)cc1 [Example 7, 5-((2S,5R)-4-(Bis(4-fluorophenyl)methyl)-2,5-dimethylpiperazin-1-yl)furo[2,3-e][1,2,4]triazolo[4,3-a]pyrimidine]	≤ 20 nM	> 2000 nM
[2H]c1nc2c(N3C[C@@H](CC)N(C(c4ccc(F)cc4)c4ccc(F)cc4)C[C@@H]3C)nc3nncn3c2n1CCN(C)C [Example 38, 2-(4-((2S,5R)-4-(Bis(4-fluorophenyl)methyl)-5-ethyl-2-methylpiperazin-1-yl)-1H-[1,2,4]triazolo[3,4-b]purin-1-yl-2-d)-N,N-dimethylethan-1-amine]	≤ 20 nM	≤ 20 nM
Cc1nc2c(N3C[C@@H](C)N(C(c4ccc(F)c(C(F)F)c4)C4CC(F)(F)C4)C[C@@H]3C)nc3nncn3c2n1C[C@@H]1CCCO1 (stereo partly drawn) [Example 54, 4-((2S,5R)-4-((3,3-Difluorocyclobutyl)(3-(difluoromethyl)-4-fluorophenyl)methyl)-2,5-dimethylpiperazin-1-yl)-2-methyl-1-(((S)-tetrahydrofuran-2-yl)methyl)-1H-[1,2,4]triazolo[3,4-b]purine]	≤ 20 nM	≤ 20 nM
Cc1nc2c(N3C[C@@H]([C@@H](C)O)N(C(c4ccc(F)cc4)c4ccc(F)cc4)C[C@@H]3C)nc3nncn3c2n1C[C@@H]1CCCO1 [Example 123, (R)-1-((2S,5S)-1-(Bis(4-fluorophenyl)methyl)-5-methyl-4-(2-methyl-1-(((S)-tetrahydrofuran-2-yl)methyl)-1H-[1,2,4]triazolo[3,4-b]purin-4-yl)piperazin-2-yl)ethan-1-ol]	≤ 20 nM	≤ 20 nM
Cc1nc2c(N3C[C@@H](C)N([C@@H](c4ccc(F)c(F)c4)C4CC(F)(F)C4)C[C@@H]3C)nc3nncn3c2n1C[C@@H]1CCCO1 [Example 47, 4-((2S,5R)-4-((R)-(3,3-difluorocyclobutyl)(3,4-difluorophenyl)methyl)-2,5-dimethylpiperazin-1-yl)-2-methyl-1-(((S)-tetrahydrofuran-2-yl)methyl)-1H-[1,2,4]triazolo[3,4-b]purine]	≤ 20 nM	≤ 20 nM
CC[C@@H]1CN(c2nc3nncn3c3c2nc(C)n3C[C@@H]2CCCO2)[C@@H](C)CN1[C@@H](c1ccc(OC(F)(F)F)cc1)C(C)C [Example 131, 4-((2S,5R)-5-ethyl-2-methyl-4-((R)-2-methyl-1-(4-(trifluoromethoxy)phenyl)propyl)piperazin-1-yl)-2-methyl-1-(((S)-tetrahydrofuran-2-yl)methyl)-1H-[1,2,4]triazolo[3,4-b]purine]	≤ 20 nM	≤ 20 nM
C[C@@H]1CN(c2nc3nncn3c3c2ncn3CCN(C)C)[C@@H](C)CN1[C@H](c1ccc(C(F)(F)F)cc1)c1ccc(C(F)(F)F)cn1 [Example 102, 2-(4-((2S,5R)-2,5-dimethyl-4-((R)-(4-(trifluoromethyl)phenyl)(5-(trifluoromethyl)pyridin-2-yl)methyl)piperazin-1-yl)-1H-[1,2,4]triazolo[3,4-b]purin-1-yl)-N,N-dimethylethan-1-amine]	≤ 20 nM	≤ 20 nM
Cc1nc2c(N3C[C@@H](C)N(C(c4ccc(Cl)c(F)c4)C4CC(F)(F)C4)C[C@@H]3C)nc3nncn3c2n1C[C@@H]1CCCO1 (single isomer, unassigned) [Example 50]	≤ 20 nM	≤ 20 nM
CCn1ccc2c1c(N1C[C@@H](C)N(C(c3ccc(F)cc3)c3ccc(F)cc3)C[C@@H]1C)nc1nncn12 [Example 10, 5-((2S,5R)-4-(Bis(4-fluorophenyl)methyl)-2,5-dimethylpiperazin-1-yl)-6-ethyl-6H-pyrrolo[2,3-e][1,2,4]triazolo[4,3-a]pyrimidine]	≤ 20 nM	> 2000 nM
C[C@@H]1CN(c2cc3nncn3c3ccsc23)[C@@H](C)CN1C(c1ccc(F)cc1)c1ccc(F)cc1 [Example 11, 5-((2S,5R)-4-(Bis(4-fluorophenyl)methyl)-2,5-dimethylpiperazin-1-yl)thieno[2,3-e][1,2,4]triazolo[4,3-a]pyridine]	≤ 20 nM	> 2000 nM

From patent publication US20230399342A1 (Incyte Corporation, priority 2022, published 2023)
